Laboratory results as given in the supplement of paper PMC11451515.

Legend:
Settings in all cases: 48 h
NOMO1 [1] = test: AUC of viability dose-response curve (% viability x log10 dose units); higher = less sensitive
How it was run: (§1)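 Area under the curve was integrated by trapezoidal rule from a log-logistic fit of normalised viability, with curves exceeding full viability scaled and quality-control failures removed. The fit had four parameters over log10 doses. Viability came from CellTiter-Glo One luminescence, normalised per plate to DMSO and cell-free wells, after leukemia cells adapted to each medium (500 or 1000 cells/well, 1536-well plates) were exposed to library compounds in DMSO for 48 h at 37°C. The 11 threefold doses ran from 47 μM to 0.79 nM.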

SEM cells [2] = test: as above
How it was run: as §1

P12-Ichikawa [3] = test: as above
How it was run: as §1

NOMO1 [4] = test: cell viability relative to DMSO control; higher = less cytotoxic
How it was run: (§2)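 Viability was expressed as a per-plate percentage of DMSO wells, with cell-free wells as background. Leukemia cells (NOMO1 or SEM at 500 cells/well, P12-Ichikawa at 1000 cells/well) were adapted for at least four passages in each medium and seeded in 1536-well plates (5 μl). Library compounds in DMSO were pin-dosed over an 11-point threefold series from 47 μM to 0.79 nM, and CellTiter-Glo One luminescence was read after 48 h at 37°C.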

SEM cells [5] = test: as above
How it was run: as §2

P12-Ichikawa [6] = test: as above
How it was run: as §2

COc1cc(N2CCC(N(C)C)CC2)ccc1Nc1ncc(Cl)c(Nc2ccccc2P(C)(C)=O)n1
AUC of viability dose-response curve
Settings | NOMO1 [1] | P12-Ichikawa [3] | SEM cells [2]
HPLM + 10% dialyzed FBS | 333 | 338 | 288
RPMI 5 mM glucose + 10% FBS | 374 | 361 | 294
RPMI 5 mM glucose + 10% dialyzed FBS | 375 | 380 | 287

cell viability [%]
Settings | NOMO1 [4] | P12-Ichikawa [6] | SEM cells [5]
HPLM + 10% dialyzed FBS, 0.000781 µM | – | 110 | 117
HPLM + 10% dialyzed FBS, 0.00234 µM | – | 115 | 112
HPLM + 10% dialyzed FBS, 0.00702 µM | – | 110 | 116
HPLM + 10% dialyzed FBS, 0.0211 µM | – | 113 | 114
HPLM + 10% dialyzed FBS, 0.0632 µM | – | 117 | 110
HPLM + 10% dialyzed FBS, 0.19 µM | – | 115 | 82.3
HPLM + 10% dialyzed FBS, 0.569 µM | – | 87.9 | 51
HPLM + 10% dialyzed FBS, 1.71 µM | – | 40.5 | 28.3
HPLM + 10% dialyzed FBS, 5.12 µM | – | 13.6 | 17.7
HPLM + 10% dialyzed FBS, 15.4 µM | – | 18.3 | 11.9
HPLM + 10% dialyzed FBS, 46.1 µM | – | 30.7 | 5.99
RPMI 5 mM glucose + 10% FBS, 0.000781 µM | 123 | 112 | 114
RPMI 5 mM glucose + 10% FBS, 0.00234 µM | 116 | 118 | 105
RPMI 5 mM glucose + 10% FBS, 0.00702 µM | 130 | 123 | 114
RPMI 5 mM glucose + 10% FBS, 0.0211 µM | 118 | 122 | 109
RPMI 5 mM glucose + 10% FBS, 0.0632 µM | 124 | 121 | 128
RPMI 5 mM glucose + 10% FBS, 0.19 µM | 115 | 104 | 95.4
RPMI 5 mM glucose + 10% FBS, 0.569 µM | 111 | 102 | 57.8
RPMI 5 mM glucose + 10% FBS, 1.71 µM | 102 | 82.2 | 18.2
RPMI 5 mM glucose + 10% FBS, 5.12 µM | 21.3 | 11.9 | 8.88
RPMI 5 mM glucose + 10% FBS, 15.4 µM | 23.8 | 12.5 | 6.45
RPMI 5 mM glucose + 10% FBS, 46.1 µM | 23.2 | 23.6 | 4.89
RPMI 5 mM glucose + 10% dialyzed FBS, 0.000781 µM | 115 | 111 | –
RPMI 5 mM glucose + 10% dialyzed FBS, 0.00234 µM | 110 | 113 | –
RPMI 5 mM glucose + 10% dialyzed FBS, 0.00702 µM | 128 | 117 | –
RPMI 5 mM glucose + 10% dialyzed FBS, 0.0211 µM | 117 | 124 | –
RPMI 5 mM glucose + 10% dialyzed FBS, 0.0632 µM | 123 | 126 | –
RPMI 5 mM glucose + 10% dialyzed FBS, 0.19 µM | 124 | 127 | –
RPMI 5 mM glucose + 10% dialyzed FBS, 0.569 µM | 107 | 107 | –
RPMI 5 mM glucose + 10% dialyzed FBS, 1.71 µM | 94.7 | 106 | –
RPMI 5 mM glucose + 10% dialyzed FBS, 5.12 µM | 31.4 | 30.8 | –
RPMI 5 mM glucose + 10% dialyzed FBS, 15.4 µM | 21.3 | 19.3 | –
RPMI 5 mM glucose + 10% dialyzed FBS, 46.1 µM | 27.6 | 31.5 | –

CCN1CCCC1CNC(=O)c1cc([S+](N)(=O)[O-])ccc1OC (stereo not drawn)
AUC of viability dose-response curve
Settings | NOMO1 [1] | P12-Ichikawa [3] | SEM cells [2]
HPLM + 10% dialyzed FBS | 467 | 476 | 453
RPMI 5 mM glucose + 10% FBS | 470 | 467 | 460
RPMI 5 mM glucose + 10% dialyzed FBS | 455 | 469 | 470

cell viability [%]
Settings | NOMO1 [4] | P12-Ichikawa [6] | SEM cells [5]
HPLM + 10% dialyzed FBS, 0.000781 µM | 104 | 111 | 90
HPLM + 10% dialyzed FBS, 0.00234 µM | 117 | 115 | 88.7
HPLM + 10% dialyzed FBS, 0.00702 µM | 127 | 119 | 97.6
HPLM + 10% dialyzed FBS, 0.0211 µM | 127 | 108 | 87.3
HPLM + 10% dialyzed FBS, 0.0632 µM | 142 | 125 | 102
HPLM + 10% dialyzed FBS, 0.19 µM | 128 | 121 | 90.1
HPLM + 10% dialyzed FBS, 0.569 µM | 111 | 116 | 102
HPLM + 10% dialyzed FBS, 1.71 µM | 117 | 118 | 107
HPLM + 10% dialyzed FBS, 5.12 µM | 140 | 113 | 108
HPLM + 10% dialyzed FBS, 15.4 µM | 121 | 120 | 69.1
HPLM + 10% dialyzed FBS, 46.1 µM | 78 | 109 | 102
RPMI 5 mM glucose + 10% FBS, 0.000781 µM | 120 | – | 96.8
RPMI 5 mM glucose + 10% FBS, 0.00234 µM | 113 | – | 102
RPMI 5 mM glucose + 10% FBS, 0.00702 µM | 102 | – | 112
RPMI 5 mM glucose + 10% FBS, 0.0211 µM | 103 | – | 92.4
RPMI 5 mM glucose + 10% FBS, 0.0632 µM | 123 | – | 105
RPMI 5 mM glucose + 10% FBS, 0.19 µM | 106 | – | 111
RPMI 5 mM glucose + 10% FBS, 0.569 µM | 118 | – | 106
RPMI 5 mM glucose + 10% FBS, 1.71 µM | 120 | – | 112
RPMI 5 mM glucose + 10% FBS, 5.12 µM | 119 | – | 102
RPMI 5 mM glucose + 10% FBS, 15.4 µM | 117 | – | 66
RPMI 5 mM glucose + 10% FBS, 46.1 µM | 105 | – | 97.8
RPMI 5 mM glucose + 10% dialyzed FBS, 0.000781 µM | 111 | 107 | 102
RPMI 5 mM glucose + 10% dialyzed FBS, 0.00234 µM | 126 | 117 | 91.6
RPMI 5 mM glucose + 10% dialyzed FBS, 0.00702 µM | 106 | 121 | 110
RPMI 5 mM glucose + 10% dialyzed FBS, 0.0211 µM | 125 | 117 | 113
RPMI 5 mM glucose + 10% dialyzed FBS, 0.0632 µM | 115 | 126 | 118
RPMI 5 mM glucose + 10% dialyzed FBS, 0.19 µM | 139 | 117 | 122
RPMI 5 mM glucose + 10% dialyzed FBS, 0.569 µM | 131 | 124 | 107
RPMI 5 mM glucose + 10% dialyzed FBS, 1.71 µM | 134 | 126 | 123
RPMI 5 mM glucose + 10% dialyzed FBS, 5.12 µM | 122 | 124 | 133
RPMI 5 mM glucose + 10% dialyzed FBS, 15.4 µM | 126 | 128 | 59.1
RPMI 5 mM glucose + 10% dialyzed FBS, 46.1 µM | 129 | 117 | 121
